In patent US7507730B2, “Substituted pyrazolo[1,5-a]pyrimidines as potassium channel activators” (Bristol-Myers Squibb Company, priority 2005, dated 2009):
Read-outs that look alike come from different tables or passages of the source.

Target: Kv1.5 (Homo sapiens, UniProt P22460)
Assay: Kv1.5 inhibition assay (IKur inhibitor assay per cited references)
Format: cell-based
Conditions: for inhibition at 0.3 µM / Kv1.5% inhibition: at 0.3 μM
Source text: Assays to determine the degree of activity of a compound as an IKur inhibitor are well known in the art and are described in references such as J. Gen. Physiol. Apr.; 101 (4):513-43, and Br. J. Pharmacol. 1995 May; 115(2):267-74.

Kv1.5, sequence (P22460 whole entry): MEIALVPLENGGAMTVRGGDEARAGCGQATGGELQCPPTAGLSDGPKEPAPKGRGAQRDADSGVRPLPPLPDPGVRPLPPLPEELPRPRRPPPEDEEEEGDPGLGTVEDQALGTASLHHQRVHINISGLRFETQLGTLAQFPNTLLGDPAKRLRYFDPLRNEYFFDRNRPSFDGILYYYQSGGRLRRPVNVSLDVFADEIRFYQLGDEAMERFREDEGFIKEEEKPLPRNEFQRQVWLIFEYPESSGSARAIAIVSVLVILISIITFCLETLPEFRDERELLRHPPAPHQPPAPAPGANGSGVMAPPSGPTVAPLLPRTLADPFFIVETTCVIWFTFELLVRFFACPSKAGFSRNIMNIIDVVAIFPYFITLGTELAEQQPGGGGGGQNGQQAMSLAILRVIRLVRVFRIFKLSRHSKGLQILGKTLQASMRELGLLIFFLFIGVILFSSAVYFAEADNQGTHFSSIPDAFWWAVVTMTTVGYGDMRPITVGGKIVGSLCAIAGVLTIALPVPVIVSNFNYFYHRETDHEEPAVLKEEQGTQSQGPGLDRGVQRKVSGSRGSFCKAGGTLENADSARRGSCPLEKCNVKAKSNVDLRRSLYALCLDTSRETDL

Compound | inhibition at 0.3 µM [%] | also measured
CC1=C(C(=O)N(C)S(=O)(=O)c2ccccc2)C(c2ccc(Cl)c(Cl)c2)n2nc(C(F)(F)F)cc2N1 (single isomer, unassigned) [Example 90 Isomer 1, 7-(3,4-Dichlorophenyl)-N,5-dimethyl-N-(phenylsulfonyl)-2-(trifluoromethyl)-4,7-dihydropyrazolo[1,5-a]pyrimidine-6-carboxamide] | 37 | 
COc1ccc(S(=O)(=O)C2=C(C)Nc3cc(C(F)(F)F)nn3C2c2ccc(C)c(F)c2)cc1 (single isomer, unassigned) [Example 32 Isomer 2, 7-(3-Fluoro-4-methylphenyl)-6-(4-methoxyphenylsulfonyl)-5-methyl-2-(trifluoromethyl)-4,7-dihydropyrazolo[1,5-a]pyrimidine] |  | Kv1.5% inhibition: 72.7%
CC1=C(C(=O)N2CCCCS2(=O)=O)C(c2ccc(Cl)c(Cl)c2)n2nc(C)cc2N1 (single isomer, unassigned) [Example 84 Isomer 2] |  | Kv1.5% inhibition: 7%
COc1cccc(S(=O)(=O)C2=C(C)Nc3cc(C(F)(F)F)nn3C2c2ccc(Cl)cc2)c1 (single isomer, unassigned) [Example 40 Isomer 2, 7-(4-Chlorophenyl)-6-(3-methoxyphenylsulfonyl)-5-methyl-2-(trifluoromethyl)-4,7-dihydropyrazolo[1,5-a]pyrimidine] |  | Kv1.5% inhibition: 74.4%
CC1=C(S(=O)(=O)c2ccc(Cl)cc2)C(c2ccc(Cl)c(Cl)c2)n2nccc2N1 (single isomer, unassigned) [Example 2 Isomer 1, 6-(4-Chlorophenylsulfonyl)-7-(3,4-dichlorophenyl)-5-methyl-4,7-dihydropyrazolo[1,5-a]pyrimidine] |  | IC50 (read-out: Kv1.5 IC50): 0.092 µM
CC1=C(S(=O)(=O)c2ccccc2)C(c2ccc(Cl)c(F)c2)n2nc(C)cc2N1 (single isomer, unassigned) [Example 7 Isomer 1, 7-(4-Chloro-3-fluorophenyl)-2,5-dimethyl-6-(phenylsulfonyl)-4,7-dihydropyrazolo[1,5-a]pyrimidine] |  | Kv1.5% inhibition: 90.8%
CC1=C(S(=O)(=O)N(C)c2ccccc2)C(c2ccc(Cl)c(Cl)c2)n2nc(C)cc2N1 (racemic) [Example 60, 7-(3,4-Dichlorophenyl)-N,2,5-trimethyl-N-phenyl-4,7-dihydropyrazolo[1,5-a]pyrimidine-6-sulfonamide] | 83.2 | 
CC1=C(S(=O)(=O)c2ccccc2)C(c2ccc(F)cc2)n2nc(C(F)(F)F)cc2N1 (single isomer, unassigned) [Example 36 Isomer 1, 7-(4-Fluorophenyl)-5-methyl-6-(phenylsulfonyl)-2-(trifluoromethyl)-4,7-dihydropyrazolo[1,5-a]pyrimidine] |  | IC50 (read-out: Kv1.5 IC50): 0.208 µM
CC1=C(S(=O)(=O)c2ccccn2)C(c2ccc(Cl)c(Cl)c2)n2nc(C)cc2N1 (single isomer, unassigned) [Example 11 Isomer 2, 7-(3,4-Dichlorophenyl)-2,5-dimethyl-6-(pyridin-2-ylsulfonyl)-4,7-dihydropyrazolo[1,5-a]pyrimidine] |  | Kv1.5% inhibition: 21.5%
CC1=C(S(=O)(=O)N2CCCC2)C(c2ccc(Cl)cc2)n2nc(C(F)(F)F)cc2N1 (single isomer, unassigned) [Example 67 Isomer 1, 7-(4-Chlorophenyl)-5-methyl-6-(pyrrolidin-1-ylsulfonyl)-2-(trifluoromethyl)-4,7-dihydropyrazolo[1,5-a]pyrimidine] | 60 | 
COc1ccc(S(=O)(=O)N(C)C(=O)C2=C(C)Nc3cc(C)nn3C2c2ccc(Cl)c(Cl)c2)cc1 (single isomer, unassigned) [Example 81 Isomer 2, 7-(3,4-Dichlorophenyl)-N-(4-methoxyphenylsulfonyl)-N,2,5-trimethyl-4,7-dihydropyrazolo[1,5-a]pyrimidine-6-carboxamide] |  | IC50 (given as % inhibition, value given as a concentration in μM, read-out: Kv1.5% inhibition): 0.098 µM
CC1=C(C(=O)N2CCN(C)S2(=O)=O)C(c2ccc(Cl)c(Cl)c2)n2nc(C)cc2N1 (racemic) [Example 83] | 40 | 
CC1=C(S(=O)(=O)c2ccc(Cl)cc2)C(c2ccc(Cl)cc2)n2nc(C(F)(F)F)cc2N1 (single isomer, unassigned) [Example 31 Isomer 2, 7-(4-Chlorophenyl)-6-(4-chlorophenylsulfonyl)-5-methyl-2-(trifluoromethyl)-4,7-dihydropyrazolo[1,5-a]pyrimidine] |  | Kv1.5% inhibition: 81.9%
Cc1cc2nc(C)c(S(=O)(=O)Cc3ccccc3)c(-c3ccc(Cl)c(Cl)c3)n2n1 (racemic) [Example 15, 6-(Benzylsulfonyl)-7-(3,4-dichlorophenyl)-2,5-dimethylpyrazolo[1,5-a]pyrimidine] | 8.5 | 
CC1=C(S(=O)(=O)N2CCCC2)C(c2ccc(Cl)cc2)n2nc(C(F)(F)F)cc2N1 (single isomer, unassigned) [Example 67 Isomer 2, 7-(4-Chlorophenyl)-5-methyl-6-(pyrrolidin-1-ylsulfonyl)-2-(trifluoromethyl)-4,7-dihydropyrazolo[1,5-a]pyrimidine] |  | Kv1.5% inhibition: 54%
CC1=C(C(=O)N(C)S(=O)(=O)c2ccc(Cl)cc2)C(c2ccc(Cl)c(Cl)c2)n2nccc2N1 (racemic) [Example 75, N-(4-Chlorophenylsulfonyl)-7-(3,4-dichlorophenyl)-N,5-dimethyl-4,7-dihydropyrazolo[1,5-a]pyrimidine-6-carboxamide] | 89 | 
CC1=C(C(=O)N(C)S(=O)(=O)c2ccccc2)C(c2ccc(Cl)c(Cl)c2)n2nccc2N1 (racemic) [Example 74, 7-(3,4-Dichlorophenyl)-N,5-dimethyl-N-(phenylsulfonyl)-4,7-dihydropyrazolo[1,5-a]pyrimidine-6-carboxamide] | 79 | 
CC1=C(S(=O)(=O)c2ccc(Cl)cc2)C(c2ccccc2)n2nc(C(F)(F)F)cc2N1 (single isomer, unassigned) [Example 35 Isomer 2, 6-(4-Chlorophenylsulfonyl)-5-methyl-7-phenyl-2-(trifluoromethyl)-4,7-dihydropyrazolo[1,5-a]pyrimidine] |  | IC50 (read-out: Kv1.5 IC50): 0.252 µM
CC1=C(S(=O)(=O)c2ccc(F)cc2)C(c2ccc(Cl)c(Cl)c2)n2nc(C(F)(F)F)cc2N1 (single isomer, unassigned) [Example 12 Isomer 1, 7-(3,4-Dichlorophenyl)-6-(4-fluorophenylsulfonyl)-5-methyl-2-(trifluoromethyl)-4,7-dihydropyrazolo[1,5-a]pyrimidine] |  | IC50 (read-out: Kv1.5 IC50): 0.142 µM
CCCS(=O)(=O)N(C)C(=O)C1=C(C)Nc2cc(C(F)(F)F)nn2C1c1ccc(Cl)c(Cl)c1 (single isomer, unassigned) [Example 91 Isomer 1, 7-(3,4-Dichlorophenyl)-N,5-dimethyl-N-(propylsulfonyl)-2-(trifluoromethyl)-4,7-dihydropyrazolo[1,5-a]pyrimidine-6-carboxamide] | 72 | 

Second part, led by results:

inhibition at 0.3 µM [%] | Compound | also measured
42.3 | COc1ccc(S(=O)(=O)C2=C(C)Nc3cc(C)nn3C2c2ccc(Cl)cc2)cc1 (single isomer, unassigned) [Example 19 Isomer 2, 7-(4-Chlorophenyl)-6-(4-methoxyphenylsulfonyl)-2,5-dimethyl-4,7-dihydropyrazolo[1,5-a]pyrimidine] | 
81.8 | COc1ccc(S(=O)(=O)C2=C(C)Nc3cc(C(F)(F)F)nn3C2c2ccc(C)c(F)c2)cc1 (single isomer, unassigned) [Example 32 Isomer 1, 7-(3-Fluoro-4-methylphenyl)-6-(4-methoxyphenylsulfonyl)-5-methyl-2-(trifluoromethyl)-4,7-dihydropyrazolo[1,5-a]pyrimidine] | 
78.6 | COc1cccc(S(=O)(=O)C2=C(C)Nc3cc(C(F)(F)F)nn3C2c2ccc(Cl)c(Cl)c2)c1 (single isomer, unassigned) [Example 39 Isomer 1, 7-(3,4-Dichlorophenyl)-6-(3-methoxyphenylsulfonyl)-5-methyl-2-(trifluoromethyl)-4,7-dihydropyrazolo[1,5-a]pyrimidine] | 
47.6 | CC1=C(S(=O)(=O)c2ccc(F)cc2)C(c2ccc(Cl)cc2)n2nc(C(F)(F)F)cc2N1 (single isomer, unassigned) [Example 27 Isomer 1, 7-(4-Chlorophenyl)-6-(4-fluorophenylsulfonyl)-5-methyl-2-(trifluoromethyl)-4,7-dihydropyrazolo[1,5-a]pyrimidine] | 
78.1 | COc1ccccc1S(=O)(=O)C1=C(C)Nc2cc(C(F)(F)F)nn2C1c1ccc(Cl)cc1 (single isomer, unassigned) [Example 46 Isomer 1, 7-(4-Chlorophenyl)-6-(2-methoxyphenylsulfonyl)-5-methyl-2-(trifluoromethyl)-4,7-dihydropyrazolo[1,5-a]pyrimidine] | 
59.7 | CC1=C(S(=O)(=O)c2ccc(C(F)(F)F)cc2)C(c2ccc(Cl)c(Cl)c2)n2nc(C)cc2N1 (single isomer, unassigned) [Example 9 Isomer 2, 7-(3,4-Dichlorophenyl)-2,5-dimethyl-6-(4-(trifluoromethyl)phenylsulfonyl)-4,7-dihydropyrazolo[1,5-a]pyrimidine] | 
48 | CC1=C(S(=O)(=O)c2ccc(Cl)cc2)C(CC(C)C)n2nc(C(F)(F)F)cc2N1 (single isomer, unassigned) [Example 45 Isomer 2, 6-(4-Chlorophenylsulfonyl)-7-isobutyl-5-methyl-2-(trifluoromethyl)-4,7-dihydropyrazolo[1,5-a]pyrimidine] | 
84.4 | COc1cccc(S(=O)(=O)C2=C(C)Nc3cc(C(F)(F)F)nn3C2c2ccc(C)c(F)c2)c1 (single isomer, unassigned) [Example 41 Isomer 1, 7-(3-Fluoro-4-methylphenyl)-6-(3-methoxyphenylsulfonyl)-5-methyl-2-(trifluoromethyl)-4,7-dihydropyrazolo[1,5-a]pyrimidine] | 
94.5 | CC1=C(S(=O)(=O)c2ccc(Cl)cc2)C(c2ccc(C)c(F)c2)n2nc(C(F)(F)F)cc2N1 (single isomer, unassigned) [Example 42 Isomer 1, 6-(4-Chlorophenylsulfonyl)-7-(3-fluoro-4-methylphenyl)-5-methyl-2-(trifluoromethyl)-4,7-dihydropyrazolo[1,5-a]pyrimidine] | 
